According to patent US20040242650A1, “Extended dosing regimen” (priority 2003, published 2004):
Marks after values point to notes of the source that are not given here.

How the values were obtained:
Conditions in all cases: for Tumor Volume Day 38: mean ± SEM; for % ILS: median, time to 1 cc vs vehicle; for % T/C Day 38: treated vs vehicle
[1] = tested on: HT-29 colon subcutaneous flank xenografts; test: HT-29 flank xenograft model; assay type: in vivo, nude mice
Protocol: (§1) Efficacy of N-[2-[(4-hydroxyphenyl)amino]-3-pyridyl]-4-methoxybenzenesulfonamide was tested in Calu-6 NSCL, MDA-MB-468 breast and HT-29 colon carcinoma xenografts grown in nude mice. The objectives were determination of the efficacy of N-[2-[(4-hydroxyphenyl)amino]-3-pyridyl]-4-methoxybenzenesulfonamide as a single agent and in combination with cisplatin in the Calu-6 NSCL flank xenograft model; determination the efficacy of N-[2-[(4-hydroxyphenyl)amino]-3-pyridyl]-4-methoxybenzenesulfonamide as a single agent and in combination with docetaxel in the MDA-MB 468 breast flank xenograft model; determination of the efficacy of N-[2-[(4-hydroxyphenyl)amino]-3-pyridyl]-4-methoxybenzenesulfonamide as a single agent and in combination with 5-FU in the HT-29 colon flank xenograft model; and comparison the efficacy of N-[2-[(4-hydroxyphenyl)amino]-3-pyridyl]-4-methoxybenzenesulfonamide administered on 2 different schedules (q.d. vs b.i.d.) in the Calu-6 and HT-29 xenogaft model.
(§2) Following inoculation of tumor cells, tumors were passaged three times in mice before using the fragments to generate single cell suspensions. Multiple animals were used as donors. Single cell suspensions were generated by homogenizing the minced tumor tissue in RPMI 1640 media. Cell suspensions were washed three times to remove debris and other foreign materials. Viable cells were counted by trypan blue exclusion technique using a hemocytometer. Mice were injected subcutaneously with 0.5 ml of the cell suspension containing 1×10^6 cells.
Tumor cells derived from serially passaged tumor fragments were inoculated s.c. in female nude mice on day 0. On day 10, mice bearing established tumors were size matched at ˜236 mm^3 and placed into the following groups:
1. N-[2-[(4-hydroxyphenyl)amino]-3-pyridyl]-4-methoxybenzenesulfonamide—100, and 75 mg/kg/day (p.o., q.d., 5 days on, 5 days off ×2)
2. N-[2-[(4-hydroxyphenyl)amino]-3-pyridyl]-4-methoxybenzenesulfonamide—50 and 0 mg/kg/day (p.o., q.d. ×21 or p.o., b.i.d. ×21)
Combination Therapy—100/30, 75/30, mg/kg/day (p.o., q.d., 5 days on, 5 days off ×2/ip, qd ×1), 50/10 mg/kg/day (p.o., q.d., ×21/ip, qd ×1).

[2] = tested on: Calu-6 lung subcutaneous flank xenografts; test: Calu-6 flank xenograft model; assay type: in vivo, male nude mice
Protocol: as §1, §2
Tumor cells were inoculated s.c. into male nude mice on day 0. On day 10, mice bearing established tumors were size matched at ˜233 mm^3 and placed into the following groups:
(§3) N-[2-[(4-hydroxyphenyl)amino]-3-pyridyl]-4-methoxybenzenesulfonamide—100, and 75 mg/kg/day (p.o., q.d., 5 days on, 5 days off ×2)
N-[2-[(4-hydroxyphenyl)amino]-3-pyridyl]-4-methoxybenzenesulfonamide—50 and 0 mg/kg/day (p.o., q.d. ×21 or p.o., b.i.d. ×21)
Cisplaitn—20, 10, 8 and 0 mg/kg/day (ip, qd ×1)
Combination Therapy—100/10, 75/10, 100/8 mg/kg/day (p.o., q.d., 5 days on, 5 days off ×2/ip, qd ×1), 50/10 mg/kg/day (p.o., q.d., ×21/ ip, qd ×1)

[3] = tested on: MDA-MB-468 breast subcutaneous flank xenografts; test: MDA-MB-468 breast flank xenograft model; assay type: in vivo, female nude mice
Protocol: as §1, §2
Efficacy of N-[2-[(4-hydroxyphenyl)amino]-3-pyridyl]-4-methoxybenzenesulfonamide in the MDA-MB-468 Breast Flank Xenograft Model. Tumor cells derived from serially passaged tumor fragments were inoculated s.c. in female nude mice on day 0. On day 10, mice bearing established tumors were size matched at ˜231 mm^3 and placed into the following groups:
as §3
N-[2-[(4-hydroxyphenyl)amino]-3-pyridyl]-4-methoxybenzenesulfonamide—50 and 0 mg/kg/day (p.o., q.d. ×21)
Docetaxel—40, 33.3, 16.7 and 0 mg/kg/day (i.v., qd ×1)

[4] = 75 mg/kg/day p.o., q.d., (5 days on, 5 days off) x2
[5] = 100 mg/kg/day p.o., q.d., (5 days on, 5 days off) x2
[6] = 100 and 75 mg/kg/day, 5 days on, 5 days off for 2 cycles

**Q.** With `COc1ccc(S(=O)(=O)Nc2cccnc2Nc2ccc(O)cc2)cc1` [N-[2-[(4-hydroxyphenyl)amino]-3-pyridyl]-4-methoxybenzenesulfonamide] as the compound, how does the “Tumor Volume Day 38” value ([1]; 50 mg/kg/day p.o., b.i.d x21) read?
**A.** Its value is 1158 ± 62 mm^3.

**Q.** And the “% ILS” value ([1]; 50 mg/kg/day p.o., b.i.d x21)?
**A.** The value was 36*** %.

**Q.** And the “% T/C Day 38” value ([1]; 50 mg/kg/day p.o., b.i.d x21)?
**A.** Its value is 51*** %.

**Q.** And the “Tumor Volume Day 38” value ([1]; 50 mg/kg/day p.o., q.d x21)?
**A.** The value was 1244 ± 55 mm^3.

**Q.** And the “% ILS” value ([1]; 50 mg/kg/day p.o., q.d x21)?
**A.** Its value is 36*** %.

**Q.** What about the “% T/C Day 38” value ([1]; 50 mg/kg/day p.o., q.d x21) of the same compound?
**A.** Its value is 55*** %.

**Q.** And the “Tumor Volume Day 38” value [1, 4]?
**A.** Its value is 942 ± 46 mm^3.

**Q.** What about the “% ILS” value [1, 4] of the same compound?
**A.** The value was 50*** %.

**Q.** What about the “% T/C Day 38” value [1, 4] of the same compound?
**A.** Its value is 43*** %.

**Q.** And the “Tumor Volume Day 38” value [1, 5]?
**A.** The value was 619 ± 40 mm^3.

**Q.** What about the “% ILS” value [1, 5] of the same compound?
**A.** The value was 75*** %.

**Q.** What about the “% T/C Day 38” value [1, 5] of the same compound?
**A.** Its value is 28*** %.

**Q.** And the “antitumor activity as a single agent” value [1, 6]?
**A.** Its value is “significant antitumor activity”.

**Q.** What about the “efficacy of combination compared to single agents alone (summary)” value ([1]; in combination with 5-FU) of the same compound?
**A.** Its value is “equal to or greater than additive efficacy”.

**Q.** And the “response in combination with 5-FU” value ([1]; in combination with 5-FU at 30 mg/kg/day, at the higher doses)?
**A.** The value was “additive responses”.

**Q.** What about the “efficacy q.d. vs b.i.d. (summary)” value ([1]; q.d. or b.i.d. for 21 days) of the same compound?
**A.** Its value is “equal efficacy”.

**Q.** And the “efficacy as a single agent (summary)” value ([1]; single agent)?
**A.** Its value is “dose-dependent efficacy”.

**Q.** And the “Tumor Volume Day 38” value ([2]; 50 mg/kg/day p.o., b.i.d x21)?
**A.** The value was 1534 ± 47 mm^3.

**Q.** And the “% ILS” value ([2]; 50 mg/kg/day p.o., b.i.d x21)?
**A.** The value was 58*** %.

**Q.** And the “% T/C Day 38” value ([2]; 50 mg/kg/day p.o., b.i.d x21)?
**A.** The value was 56*** %.

**Q.** And the “Tumor Volume Day 38” value ([2]; 50 mg/kg/day p.o., q.d x21)?
**A.** The value was 1455 ± 65 mm^3.

**Q.** What about the “% ILS” value ([2]; 50 mg/kg/day p.o., q.d x21) of the same compound?
**A.** Its value is 58*** %.

**Q.** What about the “% T/C Day 38” value ([2]; 50 mg/kg/day p.o., q.d x21) of the same compound?
**A.** The value was 54*** %.

**Q.** What about the “Tumor Volume Day 38” value [2, 4] of the same compound?
**A.** The value was 1406 ± 65 mm^3.

**Q.** What about the “% ILS” value [2, 4] of the same compound?
**A.** The value was 58*** %.

**Q.** What about the “% T/C Day 38” value [2, 4] of the same compound?
**A.** Its value is 50*** %.

**Q.** And the “Tumor Volume Day 38” value [2, 5]?
**A.** Its value is 1022 ± 48 mm^3.

**Q.** What about the “% ILS” value [2, 5] of the same compound?
**A.** Its value is 65*** %.

**Q.** And the “% T/C Day 38” value [2, 5]?
**A.** Its value is 37*** %.

**Q.** What about the “antitumor activity as a single agent” value [2, 6] of the same compound?
**A.** Its value is “significant antitumor activity”.

**Q.** What about the “efficacy of combination compared to single agents alone (summary)” value ([2]; in combination with cisplatin) of the same compound?
**A.** Its value is “equal to or greater than additive efficacy”.

**Q.** What about the “response in combination with cisplatin” value ([2]; in combination with cisplatin, all three doses tested) of the same compound?
**A.** Its value is “greater than additive responses”.

**Q.** And the “efficacy q.d. vs b.i.d. (summary)” value ([2]; q.d. or b.i.d. for 21 days)?
**A.** The value was “equal efficacy”.

**Q.** And the “efficacy as a single agent (summary)” value ([2]; single agent)?
**A.** The value was “dose-dependent efficacy”.

**Q.** What about the “Tumor Volume Day 38” value ([3]; 50 mg/kg/day p.o., q.d x21) of the same compound?
**A.** Its value is 1244 ± 59 mm^3.

**Q.** And the “% ILS” value ([3]; 50 mg/kg/day p.o., q.d x21)?
**A.** The value was 41*** %.

**Q.** What about the “% T/C Day 38” value ([3]; 50 mg/kg/day p.o., q.d x21) of the same compound?
**A.** The value was 46*** %.

**Q.** What about the “Tumor Volume Day 38” value [3, 4] of the same compound?
**A.** The value was 851 ± 55 mm^3.

**Q.** And the “% ILS” value [3, 4]?
**A.** The value was 52*** %.

**Q.** And the “% T/C Day 38” value [3, 4]?
**A.** The value was 33*** %.

**Q.** And the “Tumor Volume Day 38” value [3, 5]?
**A.** Its value is 638 ± 48 mm^3.

**Q.** And the “% ILS” value [3, 5]?
**A.** The value was 78*** %.

**Q.** What about the “% T/C Day 38” value [3, 5] of the same compound?
**A.** The value was 25*** %.

**Q.** And the “antitumor activity as a single agent” value ([3]; 100 and 75 mg/kg/day 5 days on, 5 days off for 2 cycles, 50 mg/kg/day daily)?
**A.** Its value is “dose-dependent antitumor activity”.

**Q.** And the “efficacy of combination compared to single agents alone (summary)” value ([3]; in combination with docetaxel)?
**A.** The value was “equal to or greater than additive efficacy”.

**Q.** What about the “response in combination with docetaxel” value ([3]; in combination with docetaxel at 33.3 mg/kg/day, all three doses tested) of the same compound?
**A.** Its value is “greater than additive responses”.

**Q.** And the “efficacy as a single agent (summary)” value ([3]; single agent)?
**A.** The value was “dose-dependent efficacy”.
